Experimental data reported in article PMC9533837 (Antiviral Research, 2003).
Converted amounts (≈) assume the structure as drawn. Where two headings read alike, the source gives them in different places.

Key:
VAR isolate 7125 = assay: organism not typed; assay type: cell-based, variola; details: Vero, read-out: IC50, VAR isolate 7125
all VAR isolates tested = assay: organism not typed; assay type: cell-based, variola; details: Vero, read-out: IC50, VAR mean
[1] = system: MPX Zaire (V79-1-005-Scab); assay: organism not typed; assay type: cell-based, monkeypox; details: for IC50: LLC-MK2, read-out: IC50 MPX LLC-MK2
VAR isolate Rafig Lahore = assay: organism not typed; assay type: cell-based, variola; details: Vero, read-out: IC50, VAR isolate Rafig Lahore
VAR isolate Minn124 = assay: organism not typed; assay type: cell-based, variola minor; details: Vero, read-out: IC50, VAR isolate Minn124
LLC-MK2 cells = details: rhesus monkey
[2] = system: VAR-YAM (1946 Japan Yamada isolate of VAR major); assay: organism not typed; assay type: cell-based, variola major; details: for IC50: LLC-MK2, read-out: IC50 VAR-YAM LLC-MK2
VAR isolate 102 = assay: organism not typed; assay type: cell-based, variola; details: Vero, read-out: IC50, VAR isolate 102
VAR isolate Jee = assay: organism not typed; assay type: cell-based, variola; details: Vero, read-out: IC50, VAR isolate Jee
VAR isolate Eth17 = assay: organism not typed; assay type: cell-based, variola; details: Vero, read-out: IC50, VAR isolate Eth17
[3] = system: VAR-YAM (1946 Japan Yamada isolate of VAR major); assay: organism not typed; assay type: cell-based, variola major; details: for IC50: Vero
[4] = system: VAR-GAR (1966 Brazil Garcia isolate of VAR minor); assay: organism not typed; assay type: cell-based, variola minor; details: for IC50: Vero
VAR isolate V68-59 = assay: organism not typed; assay type: cell-based, variola minor; details: Vero, read-out: IC50, VAR isolate V68-59
[5] = system: VAR-BSH (1975 Bangladesh isolate of VAR major); assay: organism not typed; assay type: cell-based, variola major; details: for IC50: LLC-MK2, read-out: IC50 VAR-BSH LLC-MK2
VAR isolate V70-46 = assay: organism not typed; assay type: cell-based, variola; details: Vero, read-out: IC50, VAR isolate V70-46
VAR isolate Higgins = assay: organism not typed; assay type: cell-based, variola; details: Vero, read-out: IC50, VAR isolate Higgins
VAR isolate V72-119 = assay: organism not typed; assay type: cell-based, variola; details: Vero, read-out: IC50, VAR isolate V72-119
Vero cells = details: African green monkey
[6] = system: orthopoxviruses (VAR-BSH, VAR-YAM, VAR-GAR, MPX, CPX, VAC); assay: organism not typed; assay type: cell-based
VAR isolate V73-225 = assay: organism not typed; assay type: cell-based, variola; details: Vero, read-out: IC50, VAR isolate V73-225
[7] = system: VAR-GAR (1966 Brazil Garcia isolate of VAR minor); assay: organism not typed; assay type: cell-based, variola minor; details: for IC50: LLC-MK2, read-out: IC50 VAR-GAR LLC-MK2
VAR isolate Horn = assay: organism not typed; assay type: cell-based, variola; details: Vero, read-out: IC50, VAR isolate Horn
VAR isolate 7124 = assay: organism not typed; assay type: cell-based, variola; details: Vero, read-out: IC50, VAR isolate 7124
VAR isolate Hinden = assay: organism not typed; assay type: cell-based, variola; details: Vero, read-out: IC50, VAR isolate Hinden
VAR isolate Iran 2602 = assay: organism not typed; assay type: cell-based, variola; details: Vero, read-out: IC50, VAR isolate Iran 2602
VAR isolate Rumbec = assay: organism not typed; assay type: cell-based, variola; details: Vero, read-out: IC50, VAR isolate Rumbec
CPX Brighton [8] = assay: organism not typed; assay type: cell-based, cowpox; details: for IC50: Vero
VAR isolate V73-175 = assay: organism not typed; assay type: cell-based, variola; details: Vero, read-out: IC50, VAR isolate V73-175
VAR isolate V70-222 = assay: organism not typed; assay type: cell-based, variola; details: Vero, read-out: IC50, VAR isolate V70-222
VAR isolate V77-1605 = assay: organism not typed; assay type: cell-based, variola; details: Vero, read-out: IC50, VAR isolate V77-1605
[9] = system: VAR-BSH (1975 Bangladesh isolate of VAR major); assay: organism not typed; assay type: cell-based, variola major; details: for IC50: Vero
VAR isolate Heidelberg = assay: organism not typed; assay type: cell-based, variola; details: Vero, read-out: IC50, VAR isolate Heidelberg
VAR isolate Shahzaman = assay: organism not typed; assay type: cell-based, variola; details: Vero, read-out: IC50, VAR isolate Shahzaman
VAR isolate Butler = assay: organism not typed; assay type: cell-based, variola minor; details: Vero, read-out: IC50, VAR isolate Butler
[10] = system: MPX Zaire (V79-1-005-Scab); assay: organism not typed; assay type: cell-based, monkeypox; details: for IC50: Vero
CPX Brighton [11] = assay: organism not typed; assay type: cell-based, cowpox; details: for IC50: LLC-MK2, read-out: IC50 CPX LLC-MK2
VAR isolate K1629 = assay: organism not typed; assay type: cell-based, variola; details: Vero, read-out: IC50, VAR isolate K1629
VAC Copenhagen [12] = assay: microbe, parasite or virus in culture; assay type: cell-based, vaccinia virus; details: for IC50: Orthopoxvirus vaccinia, LLC-MK2, read-out: IC50 VAC LLC-MK2
VAC Copenhagen [13] = assay: microbe, parasite or virus in culture; assay type: cell-based, vaccinia virus; details: for IC50: Orthopoxvirus vaccinia, Vero, read-out: IC50 VAC Vero
VAR isolate Somalia = assay: organism not typed; assay type: cell-based, variola; details: Vero, read-out: IC50, VAR isolate Somalia
VAR isolate V74-227 = assay: organism not typed; assay type: cell-based, variola; details: Vero, read-out: IC50, VAR isolate V74-227
VAC = assay: microbe, parasite or virus in culture; assay type: cell-based; details: Orthopoxvirus vaccinia, read-out: IC50 against VAC

For `Nc1ccn(C[C@H]2COP(=O)(O)CO2)c(=O)n1` [cHPMPC, 1-[(S)-2-hydroxy-2-oxo-1-[4,2-dioxaphosphorinan-5-yl]methyl]cytosine], the IC50 (VAR isolate 7125) was 24 µg/mL (≈ 91.9 µM), the IC50 (all VAR isolates tested) was 17 ± 2 µg/mL (≈ 65.1 µM) and the “Therapeutic index (TI) MPX LLC-MK2” value [1] was 29.4. It also gave an IC50 [1] of 3.4 µg/mL (≈ 13 µM), an IC50 (VAR isolate Rafig Lahore) of 18 µg/mL (≈ 68.9 µM) and an IC50 (VAR isolate Minn124) of 9 µg/mL (≈ 34.5 µM). The “Cytotoxicity TC50 LLC-MK2” value (LLC-MK2 cells) was >100 µg/mL, the “Therapeutic index (TI) VAR-YAM LLC-MK2” value [2] was 16.4 and the IC50 [2] was 6.1 µg/mL (≈ 23.4 µM). For the same compound, the IC50 (VAR isolate 102) was 38 µg/mL (≈ 145 µM), the IC50 (VAR isolate Jee) was 7 µg/mL (≈ 26.8 µM) and the IC50 (VAR isolate Eth17) was 17 µg/mL (≈ 65.1 µM). The “Therapeutic index (TI) VAR-YAM Vero” value [3] was 2.8, the IC50 ([3]; read-out: IC50, VAR isolate Yamada) was 31 µg/mL (≈ 119 µM) and the IC50 ([3]; read-out: IC50 VAR-YAM Vero) was 28.2 µg/mL (≈ 108 µM). For the same compound, the “Therapeutic index (TI) VAR-GAR Vero” value [4] was 10.1, the IC50 ([4]; read-out: IC50, VAR isolate Garcia) was 4 µg/mL (≈ 15.3 µM) and the IC50 ([4]; read-out: IC50 VAR-GAR Vero) was 7.9 µg/mL (≈ 30.2 µM). The IC50 (VAR isolate V68-59) was 20 µg/mL (≈ 76.6 µM), the “Therapeutic index (TI) VAR-BSH LLC-MK2” value [5] was 4.9 and the IC50 [5] was 20.3 µg/mL (≈ 77.7 µM). It also gave an IC50 (VAR isolate V70-46) of 13 µg/mL (≈ 49.8 µM), an IC50 (VAR isolate Higgins) of 17 µg/mL (≈ 65.1 µM) and an IC50 (VAR isolate V72-119) of 18 µg/mL (≈ 68.9 µM). The “Cytotoxicity TC50 Vero” value (Vero cells) was 80.0 µg/mL, the IC50 ([6]; read-out: mean IC50 against the panel of viruses) was 21.6 ± 7.6 µg/mL (≈ 82.7 µM) and the IC50 (VAR isolate V73-225) was 9 µg/mL (≈ 34.5 µM). For the same compound, the “Therapeutic index (TI) VAR-GAR LLC-MK2” value [7] was 16.9, the IC50 [7] was 5.9 µg/mL (≈ 22.6 µM) and the IC50 (VAR isolate Horn) was 12 µg/mL (≈ 45.9 µM). The IC50 (VAR isolate 7124) was 26 µg/mL (≈ 99.6 µM), the IC50 (VAR isolate Hinden) was 19 µg/mL (≈ 72.7 µM) and the IC50 (VAR isolate Iran 2602) was 7 µg/mL (≈ 26.8 µM). For the same compound, the IC50 (VAR isolate Rumbec) was 16 µg/mL (≈ 61.3 µM), the “Therapeutic index (TI) CPX Vero” value (CPX Brighton [8]) was 3.0 and the IC50 (CPX Brighton [8]; read-out: IC50, CPX) was 52 µg/mL (≈ 199 µM). The IC50 (CPX Brighton [8]; read-out: IC50 CPX Vero) was 26.9 µg/mL (≈ 103 µM), the IC50 (VAR isolate V73-175) was 16 µg/mL (≈ 61.3 µM) and the IC50 (VAR isolate V70-222) was 23 µg/mL (≈ 88.1 µM). For the same compound, the IC50 (VAR isolate V77-1605) was 22 µg/mL (≈ 84.2 µM), the “Therapeutic index (TI) VAR-BSH Vero” value [9] was 3.2 and the IC50 ([9]; read-out: IC50, VAR isolate Bangladesh) was 17 µg/mL (≈ 65.1 µM). It also gave an IC50 ([9]; read-out: IC50 VAR-BSH Vero) of 25.3 µg/mL (≈ 96.9 µM), an IC50 (VAR isolate Heidelberg) of 14 µg/mL (≈ 53.6 µM) and an IC50 (VAR isolate Shahzaman) of 14 µg/mL (≈ 53.6 µM). The IC50 (VAR isolate Butler) was 6 µg/mL (≈ 23 µM), the “Therapeutic index (TI) MPX Vero” value [10] was 6.5 and the IC50 ([10]; read-out: IC50, MPX) was 21 µg/mL (≈ 80.4 µM). The IC50 ([10]; read-out: IC50 MPX Vero) was 12.3 µg/mL (≈ 47.1 µM), the “Therapeutic index (TI) CPX LLC-MK2” value (CPX Brighton [11]) was 1.0 and the IC50 (CPX Brighton [11]) was > 100 µg/mL. The IC50 (VAR isolate K1629) was 25 µg/mL (≈ 95.7 µM), the “Therapeutic index (TI) VAC LLC-MK2” value (VAC Copenhagen [12]) was 22.7 and the IC50 (VAC Copenhagen [12]) was 4.4 µg/mL (≈ 16.8 µM). For the same compound, the “Therapeutic index (TI) VAC Vero” value (VAC Copenhagen [13]) was 4.4, the IC50 (VAC Copenhagen [13]) was 18.1 µg/mL (≈ 69.3 µM) and the IC50 (VAR isolate Somalia) was 8 µg/mL (≈ 30.6 µM). It also gave an IC50 (VAR isolate V74-227) of 9 µg/mL (≈ 34.5 µM).
With `CC(C)(C)C(=O)OCOP(=O)(COCCn1cnc2c(N)ncnc21)OCOC(=O)C(C)(C)C` [bis-POM-PMEA, 9-[2-[[bis[(pivaloyloxy)-methoxy]phosphinyl]methoxy]ethyl]adenine] the “Therapeutic index (TI) MPX LLC-MK2” value [1] was 1.0, the IC50 [1] was > 100 µg/mL and the “Cytotoxicity TC50 LLC-MK2” value (LLC-MK2 cells) was >100 µg/mL. The “Therapeutic index (TI) VAR-YAM LLC-MK2” value [2] was 1.0, the IC50 [2] was > 100 µg/mL and the “Therapeutic index (TI) VAR-YAM Vero” value [3] was 1.0. The IC50 ([3]; read-out: IC50 VAR-YAM Vero) was > 100 µg/mL, the “Therapeutic index (TI) VAR-GAR Vero” value [4] was 1.1 and the IC50 ([4]; read-out: IC50 VAR-GAR Vero) was 90 µg/mL (≈ 179 µM). The “Therapeutic index (TI) VAR-BSH LLC-MK2” value [5] was 1.0, the IC50 [5] was > 100 µg/mL and the “Cytotoxicity TC50 Vero” value (Vero cells) was >100 µg/mL. For the same compound, the “inhibitory activity against the orthopoxviruses tested (in words)” value [6] was “Neither PMEA nor bis-POM-PMEA was effective”, the IC50 (VAC) was 55.1 µg/mL (≈ 110 µM) and the “Therapeutic index (TI) VAR-GAR LLC-MK2” value [7] was 1.2. The IC50 [7] was 85 µg/mL (≈ 169 µM), the “Therapeutic index (TI) CPX Vero” value (CPX Brighton [8]) was 1.3 and the IC50 (CPX Brighton [8]; read-out: IC50 CPX Vero) was 75.5 µg/mL (≈ 151 µM). The “Therapeutic index (TI) VAR-BSH Vero” value [9] was 1.2, the IC50 ([9]; read-out: IC50 VAR-BSH Vero) was 84.2 µg/mL (≈ 168 µM) and the “Therapeutic index (TI) MPX Vero” value [10] was 1.0. For the same compound, the IC50 ([10]; read-out: IC50 MPX Vero) was > 100 µg/mL, the “Therapeutic index (TI) CPX LLC-MK2” value (CPX Brighton [11]) was 1.2 and the IC50 (CPX Brighton [11]) was 86 µg/mL (≈ 171 µM). For the same compound, the “Therapeutic index (TI) VAC LLC-MK2” value (VAC Copenhagen [12]) was 1.5, the IC50 (VAC Copenhagen [12]) was 66.2 µg/mL (≈ 132 µM) and the “Therapeutic index (TI) VAC Vero” value (VAC Copenhagen [13]) was 2.3. The IC50 (VAC Copenhagen [13]) was 44 µg/mL (≈ 87.7 µM).
